Laboratory results as given in patent publication US8309567B2, “Spiroindoline derivatives having insecticidal properties” (priority 2003, dated 2012).

System: Spodoptera littoralis (Egyptian cotton leafworm)
Experiment: Spodoptera littoralis cotton leaf disc spray test
Type: in vivo
Details: 200 ppm sprayed on cotton leaf discs, L1 larvae, 3 days after treatment; mortality, repellent effect, feeding behaviour, growth regulation
Protocol: This Example illustrates the pesticidal/insecticidal properties of compounds of formula (I). Test against were performed as follows:
Spodoptera littoralis (Egyptian cotton leafworm)
Cotton leaf discs were placed on agar in a 24-well microtiter plate and sprayed with test solutions at an application rate of 200 ppm. After drying, the leaf discs were infested with 5 L1 larvae. The samples were checked for mortality, repellent effect, feeding behaviour, and growth regulation 3 days after treatment (DAT). The following compounds gave at least 80% control of Spodoptera littoralis: CIII-49.

Structure (SMILES): O=C(c1ccnc(Cl)c1)N1C[C@]2(CCN(C/C=C/c3ccc(Cl)cc3)C[C@H]2O)c2cc(Cl)ccc21 [CIII-49, 5-chloro-1-(2-chloropyridin-4-yl)carbonyl-1′-[trans-3-(4-chlorophenyl)allyl]-3′-hydroxy-spiro[indoline-3,4′-piperidine]]
- control of Spodoptera littoralis: at least 80%
